Values quoted from earlier work as cited in PubChem BioAssay AID1259409 (Chemical Carcinogenesis Research Information System (CCRIS), 2018).

Tested on: rodent chemically induced tumor inhibition, incidence and multiplicity
Experiment: CCRIS tumor inhibitor studies

NC(=O)c1cccnc1
tumour outcome (control, treated, inhibition, significance) (Carcinogen: N-NITROSOBIS(2-OXOPROPYL)AMINE, 60599-38-4, Dose [Inhibitor]: 0, 0.2% IN DRINKING WATER FOR 49 WK POST CARCINOGEN TREATMENT (STUDY DURATION: 52 WK), Route [Inhibitor]: ORAL, Species: HAMSTER, Strain/Sex: SYRIAN GOLDEN/FEMALE, Target Tissue: Type of Lesion: TRACHEA: PAPILLOMA, Dose [Carcinogen]: 10 MG/KG BW 1/WK FOR FIRST 3 WK OF STUDY DURATION, Promoter: NONE): 1/30 (3%), 0/29 (0%), 100%, not significant
tumour outcome (control, treated, inhibition, significance) (Carcinogen: N-NITROSOBIS(2-OXOPROPYL)AMINE, 60599-38-4, Dose [Inhibitor]: 0, 0.5% IN DRINKING WATER FOR 49 WK BEGINNING POST CARCINOGEN TREATMENT (STUDY DURATION: 52 WK), Route [Inhibitor]: ORAL, Species: HAMSTER, Strain/Sex: SYRIAN/FEMALE, Target Tissue: Type of Lesion: PANCREAS: ADENOCARCINOMA, Dose [Carcinogen]: 10 MG/KG 1/WK FOR 3 WK, Promoter: NONE): 18/30 (60%), 21/30 (70%), -17%, not significant
tumour outcome (control, treated, inhibition, significance) (Carcinogen: N-NITROSOBIS(2-OXOPROPYL)AMINE, 60599-38-4, Dose [Inhibitor]: 0, 0.5% IN DRINKING WATER FOR 49 WK POST CARCINOGEN TREATMENT (STUDY DURATION: 52 WK), Route [Inhibitor]: ORAL, Species: HAMSTER, Strain/Sex: SYRIAN GOLDEN/FEMALE, Target Tissue: Type of Lesion: KIDNEY: NEPHROBLASTOMA, Dose [Carcinogen]: 10 MG/KG BW 1/WK FOR FIRST 3 WK OF STUDY DURATION, Promoter: NONE): 2/30 (7%), 0/30 (0%), 100%, not significant
outcome (Carcinogen: N-NITROSOBIS(2-OXOPROPYL)AMINE, 60599-38-4, Dose [Inhibitor]: 0, 0.5% IN DRINKING WATER FOR 49 WK POST CARCINOGEN TREATMENT (STUDY DURATION: 52 WK), Route [Inhibitor]: ORAL, Species: HAMSTER, Strain/Sex: SYRIAN GOLDEN/FEMALE, Target Tissue: Type of Lesion: KIDNEY: RENAL CELL ADENOMA, Dose [Carcinogen]: 10 MG/KG BW 1/WK FOR FIRST 3 WK OF STUDY DURATION, Promoter: NONE): 0/30 (0%), 2/30 (7%), -100%, not significant
tumour outcome (control, treated, inhibition, significance) (Carcinogen: N-NITROSOBIS(2-OXOPROPYL)AMINE, 60599-38-4, Dose [Inhibitor]: 0, 0.5% IN DRINKING WATER FOR 49 WK POST CARCINOGEN TREATMENT (STUDY DURATION: 52 WK), Route [Inhibitor]: ORAL, Species: HAMSTER, Strain/Sex: SYRIAN GOLDEN/FEMALE, Target Tissue: Type of Lesion: KIDNEY: RENAL CELL CARCINOMA, Dose [Carcinogen]: 10 MG/KG BW 1/WK FOR FIRST 3 WK OF STUDY DURATION, Promoter: NONE): 1/30 (3%), 2/30 (7%), -133%, not significant
tumour outcome (control, treated, inhibition, significance) (Carcinogen: N-NITROSOBIS(2-OXOPROPYL)AMINE, 60599-38-4, Dose [Inhibitor]: 0, 0.5% IN DRINKING WATER FOR 49 WK POST CARCINOGEN TREATMENT (STUDY DURATION: 52 WK), Route [Inhibitor]: ORAL, Species: HAMSTER, Strain/Sex: SYRIAN GOLDEN/FEMALE, Target Tissue: Type of Lesion: LIVER: CHOLANGIOCELLULAR ADENOMA, Dose [Carcinogen]: 10 MG/KG BW 1/WK FOR FIRST 3 WK OF STUDY DURATION, Promoter: NONE): 1/30 (3%), 3/30 (10%), -233%, not significant
outcome (Carcinogen: N-NITROSOBIS(2-OXOPROPYL)AMINE, 60599-38-4, Dose [Inhibitor]: 0, 0.5% IN DRINKING WATER FOR 49 WK POST CARCINOGEN TREATMENT (STUDY DURATION: 52 WK), Route [Inhibitor]: ORAL, Species: HAMSTER, Strain/Sex: SYRIAN GOLDEN/FEMALE, Target Tissue: Type of Lesion: LIVER: CHOLANGIOCELLULAR CARCINOMA, Dose [Carcinogen]: 10 MG/KG BW 1/WK FOR FIRST 3 WK OF STUDY DURATION, Promoter: NONE): 0/30 (0%), 3/30 (10%), -%, not significant
outcome (Carcinogen: N-NITROSOBIS(2-OXOPROPYL)AMINE, 60599-38-4, Dose [Inhibitor]: 0, 0.5% IN DRINKING WATER FOR 49 WK POST CARCINOGEN TREATMENT (STUDY DURATION: 52 WK), Route [Inhibitor]: ORAL, Species: HAMSTER, Strain/Sex: SYRIAN GOLDEN/FEMALE, Target Tissue: Type of Lesion: LIVER: CYSTADENOMA, Dose [Carcinogen]: 10 MG/KG BW 1/WK FOR FIRST 3 WK OF STUDY DURATION, Promoter: NONE): 0/30 (0%), 2/30 (7%), -%, not significant
tumour outcome (control, treated, inhibition, significance) (Carcinogen: N-NITROSOBIS(2-OXOPROPYL)AMINE, 60599-38-4, Dose [Inhibitor]: 0, 0.5% IN DRINKING WATER FOR 49 WK POST CARCINOGEN TREATMENT (STUDY DURATION: 52 WK), Route [Inhibitor]: ORAL, Species: HAMSTER, Strain/Sex: SYRIAN GOLDEN/FEMALE, Target Tissue: Type of Lesion: LIVER: HEPATOCELLULAR ADENOMA, Dose [Carcinogen]: 10 MG/KG BW 1/WK FOR FIRST 3 WK OF STUDY DURATION, Promoter: NONE): 2/30 (7%), 4/30 (13%), -86%, not significant
tumour outcome (control, treated, inhibition, significance) (Carcinogen: N-NITROSOBIS(2-OXOPROPYL)AMINE, 60599-38-4, Dose [Inhibitor]: 0, 0.5% IN DRINKING WATER FOR 49 WK POST CARCINOGEN TREATMENT (STUDY DURATION: 52 WK), Route [Inhibitor]: ORAL, Species: HAMSTER, Strain/Sex: SYRIAN GOLDEN/FEMALE, Target Tissue: Type of Lesion: LIVER: HEPATOCELLULAR CARCINOMA, Dose [Carcinogen]: 10 MG/KG BW 1/WK FOR FIRST 3 WK OF STUDY DURATION, Promoter: NONE): 2/30 (7%), 2/30 (7%), 0%, not significant
tumour outcome (control, treated, inhibition, significance) (Carcinogen: N-NITROSOBIS(2-OXOPROPYL)AMINE, 60599-38-4, Dose [Inhibitor]: 0, 0.5% IN DRINKING WATER FOR 49 WK POST CARCINOGEN TREATMENT (STUDY DURATION: 52 WK), Route [Inhibitor]: ORAL, Species: HAMSTER, Strain/Sex: SYRIAN GOLDEN/FEMALE, Target Tissue: Type of Lesion: LUNG: ADENOCARCINOMA, Dose [Carcinogen]: 10 MG/KG BW 1/WK FOR FIRST 3 WK OF STUDY DURATION, Promoter: NONE): 11/30 (37%), 9/30 (30%), 19%, not significant
tumour outcome (control, treated, inhibition, significance) (Carcinogen: N-NITROSOBIS(2-OXOPROPYL)AMINE, 60599-38-4, Dose [Inhibitor]: 0, 0.5% IN DRINKING WATER FOR 49 WK POST CARCINOGEN TREATMENT (STUDY DURATION: 52 WK), Route [Inhibitor]: ORAL, Species: HAMSTER, Strain/Sex: SYRIAN GOLDEN/FEMALE, Target Tissue: Type of Lesion: LUNG: ADENOMA, Dose [Carcinogen]: 10 MG/KG BW 1/WK FOR FIRST 3 WK OF STUDY DURATION, Promoter: NONE): 15/30 (50%), 17/30 (56.7%), -13%, not significant
tumour outcome (control, treated, inhibition, significance) (Carcinogen: N-NITROSOBIS(2-OXOPROPYL)AMINE, 60599-38-4, Dose [Inhibitor]: 0, 0.5% IN DRINKING WATER FOR 49 WK POST CARCINOGEN TREATMENT (STUDY DURATION: 52 WK), Route [Inhibitor]: ORAL, Species: HAMSTER, Strain/Sex: SYRIAN GOLDEN/FEMALE, Target Tissue: Type of Lesion: LUNG: SQUAMOUS CELL CARCINOMA, Dose [Carcinogen]: 10 MG/KG BW 1/WK FOR FIRST 3 WK OF STUDY DURATION, Promoter: NONE): 2/30 (7%), 2/30 (7%), 0%, not significant
tumour outcome (control, treated, inhibition, significance) (Carcinogen: N-NITROSOBIS(2-OXOPROPYL)AMINE, 60599-38-4, Dose [Inhibitor]: 0, 0.5% IN DRINKING WATER FOR 49 WK POST CARCINOGEN TREATMENT (STUDY DURATION: 52 WK), Route [Inhibitor]: ORAL, Species: HAMSTER, Strain/Sex: SYRIAN GOLDEN/FEMALE, Target Tissue: Type of Lesion: PANCREAS (DUCTAL): ADENOCARCINOMA, Dose [Carcinogen]: 10 MG/KG BW 1/WK FOR FIRST 3 WK OF STUDY DURATION, Promoter: NONE): 18/30 (60%), 21/30 (70%), -17%, not significant
tumour outcome (control, treated, inhibition, significance) (Carcinogen: N-NITROSOBIS(2-OXOPROPYL)AMINE, 60599-38-4, Dose [Inhibitor]: 0, 0.5% IN DRINKING WATER FOR 49 WK POST CARCINOGEN TREATMENT (STUDY DURATION: 52 WK), Route [Inhibitor]: ORAL, Species: HAMSTER, Strain/Sex: SYRIAN GOLDEN/FEMALE, Target Tissue: Type of Lesion: THYROID: ADENOMA, Dose [Carcinogen]: 10 MG/KG BW 1/WK FOR FIRST 3 WK OF STUDY DURATION, Promoter: NONE): 1/30 (3%), 0/30 (0%), 100%, not significant
tumour outcome (control, treated, inhibition, significance) (Carcinogen: N-NITROSOBIS(2-OXOPROPYL)AMINE, 60599-38-4, Dose [Inhibitor]: 0, 350 MG/KG 10 MIN PRIOR TO AND 3 HR POST CARCINOGEN DOSE (STUDY DURATION: 52 WK), Route [Inhibitor]: INTRAPERITONEAL, Species: HAMSTER, Strain/Sex: SYRIAN/MALE, FEMALE, Target Tissue: Type of Lesion: PANCREAS: DUCTAL/DUCTULAR CARCINOMA, Dose [Carcinogen]: 10 MG/KG ONCE, Promoter: NONE USED): 5/60 (8%), 0/35 (0%), 100%, p<0.0001
tumour outcome (control, treated, inhibition, significance) (Carcinogen: N-NITROSOBIS(2-OXOPROPYL)AMINE, 60599-38-4, Dose [Inhibitor]: 0, 350 MG/KG 10 MIN PRIOR TO AND 3 HR POST CARCINOGEN DOSE (STUDY DURATION: 52 WK), Route [Inhibitor]: INTRAPERITONEAL, Species: HAMSTER, Strain/Sex: SYRIAN/MALE, FEMALE, Target Tissue: Type of Lesion: PANCREAS: DUCTULAR ADENOMA, Dose [Carcinogen]: 10 MG/KG ONCE, Promoter: NONE USED): 25/60 (42%), 5/35 (14%), 67%, p=0.05
tumour outcome (control, treated, inhibition, significance) (Carcinogen: URETHANE, 51-79-6, Dose [Inhibitor]: 1.0% (1.02 MG/G BW/D) IN POWDERED DIET FOR 10 D POST CARCINOGEN DOSE (STUDY DURATION: 5 MO), Route [Inhibitor]: ORAL, Species: MOUSE, Strain/Sex: ICR/FEMALE, Target Tissue: Type of Lesion: LUNG: TUMOR, Dose [Carcinogen]: 1 MG/G ONCE, Promoter: NONE USED): 27/31 (87%), 47/51 (92%), -6%, not calculated
tumour outcome (control, treated, inhibition, significance) (Carcinogen: URETHANE, 51-79-6, Dose [Inhibitor]: 2.5% (2.83 MG/G BW/D) IN POWDERED DIET FOR 10 D POST CARCINOGEN DOSE (STUDY DURATION: 5 MO), Route [Inhibitor]: ORAL, Species: MOUSE, Strain/Sex: ICR/FEMALE, Target Tissue: Type of Lesion: LUNG: TUMOR, Dose [Carcinogen]: 1 MG/G ONCE, Promoter: NONE USED): 27/31 (87%), 47/54 (87%), 0%, not calculated
